Earlier results, collected in patent US6800616B2, “Treatment of HIV infections” (SuperGen, Inc., priority 1998, dated 2004).

Columns and labels:
[1] = system: resting normal human lymphocytes
[2] = target: T1, adenosine deaminase (ADA) (Homo sapiens, UniProt P00813)
T1 sequence (P00813 1-363): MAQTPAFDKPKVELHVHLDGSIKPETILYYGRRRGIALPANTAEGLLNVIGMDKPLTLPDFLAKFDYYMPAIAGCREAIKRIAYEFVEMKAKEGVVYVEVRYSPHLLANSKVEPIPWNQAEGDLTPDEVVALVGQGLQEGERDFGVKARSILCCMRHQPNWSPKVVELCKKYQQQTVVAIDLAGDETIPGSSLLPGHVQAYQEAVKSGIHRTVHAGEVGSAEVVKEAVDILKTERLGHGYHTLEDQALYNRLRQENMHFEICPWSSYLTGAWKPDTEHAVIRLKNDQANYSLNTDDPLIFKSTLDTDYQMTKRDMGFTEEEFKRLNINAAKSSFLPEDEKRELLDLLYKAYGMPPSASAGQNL

T cells, CD4+ subset = conditions: patients given DCF, FLU or 2CDA

Compound	toxicity to resting lymphocytes [1]	resistance to ADA [2]	frequency of opportunistic infections (T cells, CD4+ subset)	lymphopenia upon administration (T cells, CD4+ subset)
Nc1nc(Cl)nc2c1ncn2[C@H]1C[C@H](O)[C@@H](CO)O1 [2CDA, 2-chloro-2′-deoxyadenosine]	selectively harm resting normal human lymphocytes	rather resistant to the enzyme	increased frequency of opportunistic infections	prolonged lymphopenia predominating in T cells, especially in the CD4+ subset
OC[C@H]1O[C@@H](n2cnc3c2NC=NC[C@H]3O)C[C@@H]1O [DCF, 2′-deoxycoformycin]	–	–	increased frequency of opportunistic infections	prolonged lymphopenia predominating in T cells, especially in the CD4+ subset
Nc1nc(F)nc2c1ncn2[C@@H]1O[C@H](COP(=O)(O)O)[C@@H](O)[C@@H]1O [FLU, fludarabine monophosphate]	–	rather resistant to the enzyme	increased frequency of opportunistic infections	prolonged lymphopenia predominating in T cells, especially in the CD4+ subset
